The values that follow come from patent publication US20250237649A1 (priority 2021, published 2025).

One may read the IC50 as the point on the concentration scale where inhibition reaches its midpoint.

In series [1] the test system is M. bovis cells. The class given is cell-based, Mycobacterium bovis.
Series [2] concerns the target T1, purified recombinant Hip1 (Mycobacterium tuberculosis, UniProt P9WHR3).
T1 sequence (P9WHR3 31-520): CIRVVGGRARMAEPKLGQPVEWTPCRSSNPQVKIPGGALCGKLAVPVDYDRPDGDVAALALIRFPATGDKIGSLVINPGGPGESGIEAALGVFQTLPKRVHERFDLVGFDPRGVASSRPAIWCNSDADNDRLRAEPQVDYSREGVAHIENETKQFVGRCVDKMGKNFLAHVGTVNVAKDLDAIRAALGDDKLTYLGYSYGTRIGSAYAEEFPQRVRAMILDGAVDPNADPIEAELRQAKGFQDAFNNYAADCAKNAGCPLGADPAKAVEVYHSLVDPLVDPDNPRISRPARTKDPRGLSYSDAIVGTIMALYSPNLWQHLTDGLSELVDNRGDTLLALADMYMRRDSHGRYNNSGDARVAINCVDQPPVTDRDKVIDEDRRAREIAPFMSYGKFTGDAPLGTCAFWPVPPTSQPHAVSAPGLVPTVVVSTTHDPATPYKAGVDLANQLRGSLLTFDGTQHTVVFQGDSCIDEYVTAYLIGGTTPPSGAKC
The following applies: cited from earlier work.

For series [3], the system named is THP1 macrophages. Briefly: Cytotoxicity against THP1 macrophages. The class given is cell-based.
Series [4] has as its system Mtb in THP-1 macrophages. The series is described as follows: Antitubercular activity (Mtb survival) in THP-1 macrophages. The following applies: for IC50: Mycobacterium tuberculosis, THP1MACROPHAGES
It counts as cell-based, Mycobacterium tuberculosis. An excerpt: FIG. 18A depicts time-dependent antitubercular activity in THP-1 macrophages. FIG. 18B depicts the average of the Hill slope values corresponding to the IC50 values used to plot the mean IC50 in FIG. 18A.

Series [5] concerns M. bovis cells. The class given is cell-based, Mycobacterium bovis. As to conditions: cell culture.
Series [6] is described as follows: Cytotoxicity towards HepG2 hepatocytes. The following applies: human, read-out: TC50, cytotoxicity towards HepG2 hepatocytes. It counts as cell-based. On the procedure:
(§1) Cells were seeded in plates and incubated overnight in a humidified incubator at 37° C., 5% CO2. […] After 72-hours of incubation, CellTiter-Glo® reagent (Promega) was added to plates and the relative luminescent units (RLU) were measured using a Synergy 4 plate reader (Biotek). […] Growth inhibition curves were fitted using the Levenberg-Marquardt algorithm. The IC50 was defined as the compound concentration that produced 50% of the growth inhibitory response.

Series [7] is described as follows: Cytotoxicity towards RAW macrophages. The class given is cell-based. As to conditions: mouse, read-out: TC50, cytotoxicity towards RAW macrophages. The protocol: as §1
[8] abbreviates: THP-1, 24 h, read-out: IC50 Mean ± SEM.
[9] abbreviates: THP-1, 72 h, read-out: IC50 Mean ± SEM.
Setting [10] is: THP-1, 72 h, read-out: IC50 Range.
The mark [11] stands for this setting: THP-1 macrophages, time point 48 h, read-out: IC50 Mean ± SEM.
Where [12] appears, read: THP-1 macrophages, time point 48 h, read-out: IC50 Range.

The structures appear in SMILES notation. “Also recorded” adds a separate entry of the source. Read-outs that look alike come from different tables or passages of the source. Non-standard residues stand in square brackets, D forms with d. Residues, ends and D or L forms follow the SMILES beside them. *: point of attachment. Sta = CC(C)C[C@H](N)[C@@H](O)CC(=O)O; pNA = O=[N+]([O-])c1ccc(N*)cc1; Isovaleryl = CC(C)CC(=O)*; Cbz = O=C(OCc1ccccc1)*

As to `NCCc1ccc(S(=O)(=O)F)cc1` [AEBSF], the “Inhibition of cleavage of UFNG1 by M. bovis cells” value (shortened to “Inhibition of cleavage of UFNG1”) in series [1] is “most significant inhibition”.
As for `O=S(=O)(F)Cc1ccccc1` [PMSF, phenylmethylsulfonyl fluoride], in series [1], the “Inhibition of cleavage of UFNG1” value is on record as “did not significantly inhibit cleavage”. For the same molecule, in series [2], the “Inhibition of Hip1 (studies have shown)” value is recorded as “not an effective inhibitor of purified recombinant Hip1; also recorded: poor inhibitor of Hip1”.
As for `CC(C)C[C@H](NC(=O)[C@H]1O[C@@H]1C(=O)O)C(=O)NCCCCN=C(N)N` [E-64], the “Inhibition of cleavage of UFNG1” value in series [1] (FRET substrate UFNG1) is “do not inhibit cleavage of UFNG1 appreciably”.
Consider `COC(=O)C(=O)[C@H](C[C@@H]1CCNC1=O)NC(=O)[C@H](CCCCN)NC(=O)[C@H](Cc1ccccc1)NC(=O)OCc1ccccc1` [Inhibitor Compound 2, Cbz-Phe-Lys-Glnlac-CO—CO2Me], for which the “Inhibition of cleavage of UFNG1” value in series [1] (FRET substrate UFNG1) is listed as “most significant inhibition”. Moreover, the “Cytotoxicity against THP1 macrophages” value in series [3] is reported as “does not have significant cytotoxicity”. The IC50 is 104 ± 39.1 µM in series [4] (setting [8]); 44.4 to 178 µM in series [4] (THP-1, 24 h, read-out: IC50 Range); 51.8 ± 14.7 µM in series [4] (setting [9]); 25.6 to 53.3 µM in series [4] (setting [10]); 58.4 ± 1.15 µM in series [4] (setting [11]); 57.3 to 59.6 µM in series [4] (setting [12]). In addition, in series [4], the “Mtb survival in THP1 macrophages” value was “effectively reduces Mtb survival”.
As to `O=C(O)CN(CCN(CC(=O)O)CC(=O)O)CC(=O)O` [EDTA], the “Inhibition of cleavage of UFNG1” value in series [1] (FRET substrate UFNG1) was “do not inhibit cleavage of UFNG1 appreciably”.
Turning to `CC(C)CC(=O)N[C@H](C(=O)N[C@H](C(=O)N[C@@H](CC(C)C)[C@@H](O)CC(=O)N[C@@H](C)C(=O)N[C@@H](CC(C)C)[C@@H](O)CC(=O)O)C(C)C)C(C)C` [pepstatin] (Isovaleryl-VV[Sta]A[Sta]-OH), the “Inhibition of cleavage of UFNG1” value in series [1] (FRET substrate UFNG1) was “do not inhibit cleavage of UFNG1 appreciably”.
As for `CC(=O)N[C@@H](CC(C)C)C(=O)N[C@@H](CC(C)C)C(=O)N[C@H](C=O)CCCNC(=N)N` [leupeptin], the “Inhibition of Hip1 (studies have shown)” value in series [2] was “inhibit Hip1”.
As to `CC(C)C[C@H](NC(=O)[C@H](CCCCN)NC(=O)[C@H](Cc1ccccc1)NC(=O)OCc1ccccc1)C(=O)Nc1ccc([N+](=O)[O-])cc1` [Cbz-Phe-Lys-Leu-pNa] (Cbz-Phe-Lys-Leu-pNA), the “Cleavage of substrate by M. bovis cells” value in series [5] is “cleaved by M. bovis”.
`COC(=O)C(=O)[C@H](CC(C)C)NC(=O)[C@H](CCCCN)NC(=O)[C@H](Cc1ccccc1)NC(=O)OCc1ccccc1` [Cbz-Phe-Lys-Leu-CO—CO2Me]: in series [1] (FRET substrate UFNG1), the “Inhibition of cleavage of UFNG1” value was “most significant inhibition”. Besides, the “Cytotoxicity against THP1 macrophages” value in series [3] is listed as “does not have significant cytotoxicity”. Also, the CC50 at 72 h in series [6] and in series [7] was more than 100 µM throughout. The IC50 in series [4] (setting [8]) was 69.7 ± 18.7 µM; in series [4] (setting [9]), 13.9 ± 4.86 µM; in series [4] (setting [10]) it was 8.24 to 23.6 µM; in series [4] (setting [11]) it was 19.6 ± 4.98 µM; in series [4] (setting [12]) it was 12.7 to 29.3 µM. Besides, the “Mtb survival in THP1 macrophages” value in series [4] is “effectively reduces Mtb survival”. Also, the “IC50 Range” value in series [4] (THP-1 macrophages, time point 24 h) lay within 51.09 to 8.38 μM.
Take `CC(C)C[C@H](NC(=O)[C@@H](NC(=O)N[C@@H](Cc1ccccc1)C(=O)O)[C@@H]1CCN=C(N)N1)C(=O)N[C@H](C=O)Cc1ccccc1` [chymostatin]: the “Inhibition of Hip1 (studies have shown)” value in series [2] is “inhibit Hip1”.
